{"source": "patent US5869609A", "about": "“G protein coupled glutamate receptors” (priority 1995, dated 1999)", "key": {"[1]": {"target": "T1, GluG R encoded by clone 45-A (Rattus norvegicus, UniProt P23385)", "T1 construct": "expressed in transfected cells; host or cells: Xenopus oocytes injected with RNA transcribed in vitro from clone 45-A", "T1 sequence (P23385 19-1199)": "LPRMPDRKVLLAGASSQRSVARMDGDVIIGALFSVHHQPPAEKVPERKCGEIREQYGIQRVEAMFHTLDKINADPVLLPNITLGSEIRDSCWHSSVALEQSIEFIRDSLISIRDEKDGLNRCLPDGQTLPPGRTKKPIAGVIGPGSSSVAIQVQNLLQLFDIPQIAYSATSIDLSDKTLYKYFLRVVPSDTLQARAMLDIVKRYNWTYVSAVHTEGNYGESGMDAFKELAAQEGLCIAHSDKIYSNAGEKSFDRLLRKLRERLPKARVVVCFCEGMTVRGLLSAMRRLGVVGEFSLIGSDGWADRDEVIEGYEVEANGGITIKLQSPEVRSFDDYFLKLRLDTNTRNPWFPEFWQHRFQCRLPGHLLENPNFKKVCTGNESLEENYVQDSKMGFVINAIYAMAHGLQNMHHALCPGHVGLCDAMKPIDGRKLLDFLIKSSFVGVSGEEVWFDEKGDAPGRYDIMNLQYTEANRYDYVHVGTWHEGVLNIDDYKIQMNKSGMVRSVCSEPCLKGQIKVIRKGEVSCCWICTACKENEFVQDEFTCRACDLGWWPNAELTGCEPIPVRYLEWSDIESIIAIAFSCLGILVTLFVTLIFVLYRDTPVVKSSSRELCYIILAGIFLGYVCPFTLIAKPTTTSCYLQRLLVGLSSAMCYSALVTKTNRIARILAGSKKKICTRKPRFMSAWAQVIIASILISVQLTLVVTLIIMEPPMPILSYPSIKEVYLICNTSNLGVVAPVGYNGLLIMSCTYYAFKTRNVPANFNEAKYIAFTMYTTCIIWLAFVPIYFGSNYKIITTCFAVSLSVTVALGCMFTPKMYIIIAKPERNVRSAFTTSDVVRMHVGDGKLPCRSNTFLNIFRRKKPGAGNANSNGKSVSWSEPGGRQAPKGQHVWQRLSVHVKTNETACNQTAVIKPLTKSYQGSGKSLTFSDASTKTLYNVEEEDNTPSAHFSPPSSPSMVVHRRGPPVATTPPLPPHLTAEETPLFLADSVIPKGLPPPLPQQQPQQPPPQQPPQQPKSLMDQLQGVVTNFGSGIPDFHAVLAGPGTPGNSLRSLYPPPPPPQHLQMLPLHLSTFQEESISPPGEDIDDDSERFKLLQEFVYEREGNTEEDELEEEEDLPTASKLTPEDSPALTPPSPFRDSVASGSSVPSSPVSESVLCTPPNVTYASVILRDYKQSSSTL", "format": "cell-based"}, "[2]": {"target": "T1, GluG R encoded by clone 45-A", "test": "Voltage clamp assay of inhibition of glutamic acid-evoked current in injected oocytes", "format": "cell-based", "conditions": "1 mM DL-AP3; 10 μM glutamic acid; read-out: current evoked by 10 μM glutamic acid, % of the control", "method": "Voltage clamp assays were also carried out on injected oocytes to measure the inhibition by the putative glutamate G protein coupled receptor antagonist, 2-amino-3-phosphonopropionic acid (AP3)."}, "[3]": {"system": "rat G protein coupled glutamate receptor", "test": "Competition of quisqualate with tritiated glutamic acid on membranes of transfected BHK cells", "format": "binding", "conditions": "membranes of BHK 570 and BHK TK^- ts13 clones", "method": "Transfected cell lines expressing GluG R were identified by the binding of ^3 H-glutamate to membrane preparations from transfected cells. Cell lines expressing low to moderate levels of GluG R are used to set up functional screening assays.\nClones of BHK 570 and BHK TK^- ts13 cells expressing the rat G protein coupled glutamate receptor cDNA were plated in two or three 150 mm maxi-plates culture dishes and were grown to confluency. The cells from each plate were scraped in 5 ml of PBS (phosphate buffered saline, Sigma Chemical Co., St. Louis, Mo.), which was pre-chilled to 4° C. The cells were removed to a chilled centrifuged tube, and the plates were each rinsed with 5 ml of chilled PBS and pooled with the cells. The chilled tubes were spun at 1,000 rpm for two minutes, and the supernatant was discarded. The cells were frozen at either -70° C. or on dry ice. In some cases, the cells were left overnight at -70° C. […] The filters were dried in a microwave oven and counted in a […].\nProtein determinations were carried out using a Coomassie Blue-based assay from Pierce Chemical Company (Rockford, Ill.) under conditions set forth by the manufacturer. One hundred microliters of undiluted cell homogenate or BSA standard was added to 2 ml of reagent and the optical density was measured at 595 nm. […]"}, "GluG R": {"system": "GluG R", "test": "Voltage-clamp recording of oocytes injected with RNA from positive pools of the cerebellum library", "format": "cell-based, rat", "conditions": "oocyte injected with RNA from subfractionated pool of 14,000 colonies, approximately 100 ng RNA", "method": "Plasmid DNA prepared from each of the 10 pools of 100,000 clones, which in total represented one sublibrary of one million clones of the cerebellum cDNA library, was purified by cesium chloride gradient ultracentrifugation. The DNA was transcribed in vitro with T7 RNA polymerase (Pharmacia) in the presence of capped nucleotide (GpppG, Pharamcia). […] The transcription reaction tubes were set up by adding 12 μl of 5× transcription buffer (Stratagene Cloning Systems, La Jolla, Calif.), 3 μl each of 10 mM ATP, CTP, GTP, and UTP, 6 μl of 10 mM GpppG (Pharmacia), 6 μl of 1 mg/ml BSA, 3 μl of 200 mM DTT, 1.5 μl of 40 U/μl RNasin (ProMega Biotech, Madison, Wis.), 8.5 μl of water, 10 μl of cDNA containing 5 to 10 μg DNA, and 1 μl of 70 U/μl T7 RNA polymerase. […] Forty microliters of water was added to the radiolabeled reactions, and 1 μl was removed from each sample and counted to determine total counts. […] The samples were centrifuged to collect the RNA and the RNA pellets were counted to determine the counts incorporated into RNA. […]\nThe RNA from each of the 10 sublibraries were injected into oocytes as described above and translation was allowed for four days. Expression of GluG R activity was assessed by voltage-clamp assay as described above. […]"}, "[4]": {"conditions": "100 μM, saturating concentration"}}, "note": "Read-outs that look alike come from different tables or passages of the source.", "data": [{"smiles": "N[C@@H](CC(=O)O)C(=O)O", "note": "[aspartic acid]", "values": [{"measurement": "response relative to 100 μM L-glutamate", "setting": "[1]; 1 mM, saturating concentration", "value": "ineffective"}]}, {"smiles": "CN[C@H](CC(=O)O)C(=O)O", "note": "[NMDA, N-methyl-D-aspartic acid]", "values": [{"measurement": "response relative to 100 μM L-glutamate", "setting": "[1]; 100 μM NMDA+10 μM glycine", "value": "ineffective"}]}, {"smiles": "Cc1onc(O)c1CC(N)C(=O)O", "note": "(stereo not drawn) [AMPA, α-amino-3-hydroxy-5-methyl-isoxazole-4-propionic acid]", "values": [{"measurement": "response relative to 100 μM L-glutamate", "setting": "[1]; [4]", "value": "ineffective"}]}, {"smiles": "NC(CP(=O)(O)O)C(=O)O", "note": "(racemic) [DL-AP3, 2-amino-3-phosphonopropionic acid]", "values": [{"measurement": "remaining activity at 1000 µM", "setting": "[2]", "value": "59.3 ± 7.3", "unit": "%"}]}, {"smiles": "NC(CCP(=O)(O)O)C(=O)O", "note": "(centres unmarked) [APB, 2-amino-4-phosphonobytyric acid]", "values": [{"measurement": "response relative to 100 μM L-glutamate", "setting": "[1]; [4]", "value": "ineffective"}]}, {"smiles": "C=C(C)[C@H]1CN[C@H](C(=O)O)[C@H]1CC(=O)O", "note": "[kainic acid]", "values": [{"measurement": "response relative to 100 μM L-glutamate", "setting": "[1]; 1 mM, saturating concentration", "value": "ineffective"}]}, {"smiles": "N[C@@H](Cn1oc(=O)[nH]c1=O)C(=O)O", "note": "[Quisqualic acid, quisqualic acid]", "values": [{"measurement": "competitive binding to the glutamate receptor expressed by transfected BHK cells", "setting": "[3]", "value": "able to competitively bind"}, {"measurement": "actual peak current in response to quisqualate (estimated from a digital panel meter)", "setting": "GluG R", "value": "approximately 1300 nA"}]}]}
